Measurements reported in the NIST ThermoML archive (doi:10.1016/j.tca.2016.06.014).
Values joined by “and” are separate entries in the source; they are usually repeats but may differ in a detail not shown here. Equal values may be shown once. ± gives the expanded uncertainty stated by the source.

Experiments:
[1] = for vapor or sublimation pressure: Transpiration method; for Normal melting temperature: DTA; for Triple point temperature: DSC
[2] = Molar enthalpy of transition or fusion; conditions: DSC

BrC1C2CC3CC(C2)CC1C3 (stereo unspecified) [2-bromoadamantane]
[1], Crystal
Conditions	vapor or sublimation pressure [kPa]
298.5 K	0.00329 ± 0.00025
300.9 K	0.0039 ± 0.00028
303.4 K	0.00475 ± 0.00034
308.4 K	0.00703 ± 0.00045
313.3 K	0.01089 ± 0.0007
318.2 K	0.01506 ± 0.00096
323.2 K	0.02279 ± 0.0014
328.2 K	0.03107 ± 0.002
333.2 K	0.04422 ± 0.0028
338.2 K	0.06437 ± 0.004
340.1 K	0.07403 ± 0.0046
343.1 K	0.08635 ± 0.0053

Crystal
Conditions	Molar enthalpy of transition or fusion [kJ/mol]	Normal melting temperature [°C]
[1]	–	141.6 ± 1.1
[2]	4.2 ± 1	–

ClC1C2CC3CC(C2)CC1C3 (stereo unspecified) [2-chlorotricyclo[3.3.1.1(3,7)]decane]
[1], Crystal
Conditions	vapor or sublimation pressure
298.6 K	0.00623 ± 0.00047 kPa
301.6 K	0.0076 ± 0.00049 kPa
303.5 K	0.00901 ± 0.00054 kPa
308.4 K	0.01307 ± 0.00078 kPa
310.3 K	0.01568 ± 0.001 kPa
313.3 K	0.0191 ± 0.0012 kPa
313.5 K	0.01927 ± 0.0012 kPa and 0.01999 ± 0.0013 kPa and 0.01925 ± 0.0012 kPa
315.3 K	0.0223 ± 0.0015 kPa
318.2 K	0.02668 ± 0.0017 kPa
323.5 K	0.03885 ± 0.0025 kPa
328.2 K	0.05574 ± 0.0035 kPa
333.2 K	0.07877 ± 0.005 kPa
335.7 K	0.08972 ± 0.0055 kPa
338.2 K	0.106 ± 0.0067 kPa

Crystal
Conditions	Molar enthalpy of transition or fusion [kJ/mol]	Normal melting temperature [°C]
[1]	–	195.0 ± 1.1
[2]	6.3 ± 1	–

ClC12CC3CC(CC(C3)C1)C2 [1-chlorotricyclo[3.3.1.1(3,7)]decane]
[1], Crystal
Conditions	vapor or sublimation pressure
298.5 K	0.01172 ± 0.00075 kPa
301 K	0.01402 ± 0.00097 kPa
303.2 K	0.01766 ± 0.0011 kPa
303.4 K	0.01712 ± 0.001 kPa
306.3 K	0.02255 ± 0.0015 kPa
308.3 K	0.02567 ± 0.0016 kPa
308.4 K	0.02653 ± 0.0017 kPa
311.4 K	0.03389 ± 0.0022 kPa
313.3 K	0.0365 ± 0.0023 kPa
316.2 K	0.04719 ± 0.003 kPa
318.2 K	0.05137 ± 0.0033 kPa and 0.05598 ± 0.0036 kPa
323.2 K	0.07923 ± 0.005 kPa
323.3 K	0.0762 ± 0.0048 kPa
326.2 K	0.09623 ± 0.006 kPa
328.2 K	0.1033 ± 0.0064 kPa and 0.11 ± 0.0069 kPa
330.7 K	0.1198 ± 0.0075 kPa
333.2 K	0.1492 ± 0.0094 kPa
333.4 K	0.1437 ± 0.009 kPa

Crystal
Conditions	Molar enthalpy of transition or fusion [kJ/mol]	Normal melting temperature [°C]
[1]	–	165.8 ± 1.1
[2]	5.2 ± 1	–

BrC1CCCCC1 [bromocyclohexane]
[1], Liquid
Conditions	vapor or sublimation pressure [kPa]
277.5 K	0.105 ± 0.0066
280 K	0.1251 ± 0.0078
281.7 K	0.1422 ± 0.009
283.6 K	0.1639 ± 0.01
285.5 K	0.1872 ± 0.012
287.4 K	0.21 ± 0.013
288.8 K	0.2298 ± 0.015
289.3 K	0.2446 ± 0.015
291.3 K	0.2704 ± 0.017
293.2 K	0.3182 ± 0.02
295.3 K	0.3668 ± 0.023
297.3 K	0.4161 ± 0.026

BrC12CC3CC(CC(C3)C1)C2 [1-bromotricyclo[3.3.1.1(3,7)]decane]
vapor or sublimation pressure [kPa], [1]
Conditions	298.2 K	303.2 K	313.2 K	317.3 K	320.2 K	323.2 K	325.7 K	328.2 K	333.1 K	337.1 K
Crystal 1	–	–	0.0166 ± 0.0011	0.02262 ± 0.0014	0.02932 ± 0.0019	0.03504 ± 0.0022	0.04244 ± 0.0027	0.04954 ± 0.0031	0.06913 ± 0.0043	0.08922 ± 0.0056
Crystal 2	0.00419 ± 0.00028	0.00677 ± 0.00043	–	–	–	–	–	–	–	–

Conditions	Molar enthalpy of transition or fusion, [2] [kJ/mol]	Triple point temperature, [1] [K]
Crystal 1	4.8 ± 1	390.9 ± 1.2
Crystal 2	7.4 ± 1	311.6 ± 1.2
